Laboratory results from US20200157088A1, “BENZENE FUSED HETEROCYCLIC COMPOUND AND USE THEREOF” (TAIWANJ PHARMACEUTICALS CO., LTD., priority 2017, published 2020).

What follows are compounds tested against T1, autotaxin (Homo sapiens, UniProt Q13822) (assay: Autotaxin inhibitor screening assay (choline release from LPC)). Details: not given.
T1 construct: purchased Cayman 10803
Type: biochemical
Procedure: Autotaxin activity was measured by choline release from LPC in presence or absence of compound.
Twenty (20) ng autotaxin (10803, Cayman, MI, USA) was incubated with 100 μM 14:0 LPC (855575P, Avanti, AL, USA) in a final volume of 100 μL buffer containing 50 mM Tris pH 8.0, 0.01% Triton X-100, 50 mM CaCl2, 1 unit/ml choline oxidase, 2 unit/ml HRP, 2 mM homovanilic acid (HVA). The relative amount of released choline was measured by HVA fluorescence in a 96-well plate. Fluorescent intensity was determined at λex/λem=320/450 nm every 60 seconds for 90 minutes with a SpectraMax i3 (Molecular Devices, CA, USA). Data analysis was performed using GraphPad Prism (GraphPad, La Jolla Calif., USA).
Inhibition %=[1−SlopeTA−SlopeBlank)/(Slopevehicle−SlopeBlank)]×100%

Row | Structure (SMILES) | inhibition at 1 µM [%]
1 | CN(C(=O)OCc1cc(F)cc(Cl)c1)C1CCc2ccc(C3=CCN(C(=O)CN4C(=O)CSC4=S)CC3)cc21 (centres unmarked) [Compound 97] | > 80
2 | CCC1Oc2ccc(C3=CCN(C(=O)CN4CCOCC4)CC3)cc2C1N(C)C(=O)OCc1cc(Cl)cc(Cl)c1 (centres unmarked) [Compound 120] | < 50

Same assay, conditions: inhibition of autotaxin enzyme activity at 1 μM compound; 100 μM 14:0 LPC; read-out: Inhibition

Row | Structure (SMILES) | inhibition at 1 µM [%]
3 | Cc1cc(COC(=O)N(C)C2CCc3ccc(C4=CCN(C(=O)CN5C(=O)CSC5=S)CC4)cc32)cc(C(F)(F)F)c1 (centres unmarked) [Compound 94] | > 80
4 | CN(C(=O)OCc1cc(C(F)(F)F)cc(C(F)(F)F)c1)C1CCc2ccc(C3=CCN(C(=O)CN4C(=O)CSC4=S)CC3)cc21 (centres unmarked) [Compound 95] | > 80
5 | CN(C(=O)OCc1cc(Cl)ccc1Cl)C1CCc2ccc(C3=CCN(C(=O)CN4C(=O)CSC4=S)CC3)cc21 (centres unmarked) [Compound 96] | > 80
6 | Cc1oc2ccc(C3=CCN(C(=O)CN4C(=O)CSC4=S)CC3)cc2c1N(C)C(=O)OCc1cc(C(F)(F)F)cc(C(F)(F)F)c1 [Compound 102] | > 80
7 | Cc1oc2ccc(C3=CCN(C(=O)CS(C)(=O)=O)CC3)cc2c1N(C)C(=O)OCc1cc(C(F)(F)F)cc(C(F)(F)F)c1 [Compound 103] | 50 to 80
8 | CCN(C(=O)OCc1cc(C(F)(F)F)cc(C(F)(F)F)c1)c1c(C)oc2ccc(C3=CCN(C(=O)CN4C(=O)CSC4=S)CC3)cc12 [Compound 105] | > 80
9 | Cc1c(N(C)C(=O)OCc2cc(C(F)(F)F)cc(C(F)(F)F)c2)c2cc(C3=CCN(C(=O)CN4C(=O)CSC4=S)CC3)ccc2n1C [Compound 109] | 50 to 80
10 | COc1cc(C2=CCN(C(=O)CN3C(=O)CSC3=S)CC2)cc2c(N(C)C(=O)OCc3cc(C(F)(F)F)cc(C(F)(F)F)c3)coc12 [Compound 112] | > 80
11 | CC1Cc2ccc(C3=CCN(C(=O)CN4C(=O)CSC4=S)CC3)cc2C1N(C)C(=O)OCc1cc(Cl)cc(Cl)c1 (centres unmarked) [Compound 117] | > 80
12 | CCC1Cc2ccc(C3=CCN(C(=O)CN4C(=O)CSC4=S)CC3)cc2C1N(C)C(=O)OCc1cc(Cl)cc(Cl)c1 (centres unmarked) [Compound 119] | 50 to 80

Second part, the compound after the results:

Row | inhibition at 1 µM [%] | Structure (SMILES)
13 | < 50 | CCC1Cc2ccc(C3=CCN(C(=O)CS(C)(=O)=O)CC3)cc2C1N(C)C(=O)OCc1cc(Cl)cc(Cl)c1 (centres unmarked) [Compound 121]
14 | 50 to 80 | O=C(Nc1noc2ccc(C3=CCN(C(=O)CN4C(=O)CSC4=S)CC3)cc12)OCc1cc(Cl)cc(Cl)c1 [Compound 127]
15 | 50 to 80 | CN(C(=O)OCc1cc(Cl)cc(Cl)c1)c1noc2ccc(C3=CCN(C(=O)CN4C(=O)CSC4=S)CC3)cc12 [Compound 128]
16 | 50 to 80 | CCN(C(=O)OCc1cc(Cl)cc(Cl)c1)c1noc2ccc(C3=CCN(C(=O)CN4C(=O)CSC4=S)CC3)cc12 [Compound 129]
17 | > 80 | CCN(C(=O)OCc1cc(Cl)cc(Cl)c1)C1CCc2ccc(C3=CCN(C(=O)CN4C(=O)CSC4=S)CC3)cc21 (centres unmarked) [Compound 130]
18 | 50 to 80 | O=C(Nc1noc2ccc(C3=CCN(C(=O)CN4C(=O)CSC4=S)CC3)cc12)OCc1cc(C(F)(F)F)cc(C(F)(F)F)c1 [Compound 131]
19 | 50 to 80 | CN(C(=O)OCc1cc(C(F)(F)F)cc(C(F)(F)F)c1)c1noc2ccc(C3=CCN(C(=O)CN4C(=O)CSC4=S)CC3)cc12 [Compound 132]
20 | 50 to 80 | CCN(C(=O)OCc1cc(C(F)(F)F)cc(C(F)(F)F)c1)c1noc2ccc(C3=CCN(C(=O)CN4C(=O)CSC4=S)CC3)cc12 [Compound 133]
21 | 50 to 80 | CN(C(=O)CCc1cc(Cl)cc(Cl)c1)C1CCc2ccc(C3=CCN(C(=O)CN4C(=O)CSC4=S)CC3)cc21 (centres unmarked) [Compound 137]
22 | 50 to 80 | CN(C(=O)CCc1cc(Cl)cc(Cl)c1)C1CCc2ccc(C3=CCN(C(=O)CCS(C)(=O)=O)CC3)cc21 (centres unmarked) [Compound 138]
23 | < 50 | CN(C(=O)OCc1cc(Cl)cc(Cl)c1)C1CCc2ccc(C3=CCN(C(=O)N4CCN(S(C)(=O)=O)C4=O)CC3)cc21 (centres unmarked) [Compound 139]
